These are literature values, as cited in patent US20030176421A1, “PROKINETIC AGENTS FOR TREATING GASTRIC HYPOMOTILITY AND RELATED DISORDERS” (priority 1999, published 2003).

No end group written: not given here.

Series [1] deals with guinea-pig gastric muscle. The following applies: without altering membrane potential significantly.
For series [2], the system named is canine colonic smooth muscle. The following applies: in the presence of forskolin; concentration dependent.
Series [3] has as its system guinea pig ileum longitudinal muscle. The following applies: potentiation at lower doses, inhibition at higher concentrations for theophylline; entire concentration range for the others.
Series [4] concerns isolated canine internal anal sphincter.
In series [5] the test system is sensitized guinea-pig colon.
Series [6] concerns cat lower oesophageal sphincter. The following applies: for cAMP and cGMP levels after exposure: cat LOS; for relaxation of circular smooth muscle (LOS): cat.
The subject of series [7] is human lower oesophageal sphincter.

As for `CC(C)Cn1c(=O)n(C)c(=O)c2[nH]cnc21` [IBMX, 3-isobutyl-1-methylxanthine], the “effect on slow waves” value in series [1] was “markedly reduce the frequency of slow waves”. For the same compound, the “potency order for decrease in carbachol-induced contractile activity” value (from here on “potency order for decrease”) in series [2] was “rolipram>Ro 20-1724>isobutyl methylxanthine>SB 94120>siguazodan>zaprinast”. Besides, in the series on pig gastric fundus, the “relaxation of muscle strips” value was “induce concentration-dependent relaxations”.

On to `[N]=O` [NO, nitric oxide], for which the “increase in cGMP content” value in the series with pig gastric fundus is approximately 40 fold.

In the case of `CCCCOc1cc(CC2CNC(=O)N2)ccc1OC` (centres unmarked) [Ro 20-1724], the “potency order for decrease” value in series [2] was “rolipram>Ro 20-1724>isobutyl methylxanthine>SB 94120>siguazodan>zaprinast”.

On to `COc1cc(C(=O)OCCCN2CCCN(CCCOC(=O)c3cc(OC)c(OC)c(OC)c3)CC2)cc(OC)c1OC` [dilazep], for which the “effect on contractile response to transmural cholinergic nerve stimulation” value (“effect on contractile response” for short) in series [3] is reported as “depression of the contractile responses”.

Turning to `OCCN(CCO)c1nc(N2CCCCC2)c2nc(N(CCO)CCO)nc(N3CCCCC3)c2n1` [dipyridamole], the “effect on contractile response” value in series [3] was “depression of the contractile responses”.

Regarding `C=C[C@@]1(C)CC(=O)[C@]2(O)[C@@]3(C)[C@@H](O)CCC(C)(C)[C@@H]3[C@H](O)[C@H](OC(C)=O)[C@@]2(C)O1` [forskolin], in series [4], the “relaxation by intrinsic inhibitory neurons and associated cGMP elevation” value was “blocked”. Also, in the series on pig gastric fundus, the “relaxation of muscle strips” value is “induce concentration-dependent relaxations”.

Take `COc1ccc(CN(CCN(C)C)c2ccccn2)cc1` [mepyramine]: the “initial rapid response of antigen-induced contraction” value in series [5] is reported as “blocked”.

Consider `O=S(=O)(Nc1cccc(OCc2ccc3ccccc3n2)c1)C(F)(F)F` [ritolukast], for which the “slower developing late contraction after antigen” value in series [5] is recorded as “reduced”.

For the compound `COc1ccc(C2CNC(=O)C2)cc1OC1CCCC1` (centres unmarked) [rolipram], the “effect on slow waves” value in series [1] was “markedly reduce the frequency of slow waves”. In addition, the “potency order for decrease” value in series [2] is recorded as “rolipram>Ro 20-1724>isobutyl methylxanthine>SB 94120>siguazodan>zaprinast”.

`CN/C(=N\c1ccc(C2=NNC(=O)CC2C)cc1)NC#N` (centres unmarked) [siguazodan]: the “potency order for decrease” value in series [2] is “rolipram>Ro 20-1724>isobutyl methylxanthine>SB 94120>siguazodan>zaprinast”.

`Cn1c(=O)c2[nH]cnc2n(C)c1=O` [theophylline]: the “effect on contractile response” value in series [3] is given as “biphasic effect on cholinergic transmission”. For the same compound, in series [1], the “effect on slow waves” value is given as “markedly reduce the frequency of slow waves”.

With `CCCOc1ccccc1-c1nc2[nH]nnc2c(=O)[nH]1` [zaprinast], the “potency order for decrease” value in series [2] is on record as “rolipram>Ro 20-1724>isobutyl methylxanthine>SB 94120>siguazodan>zaprinast”. Moreover, in the series with pig gastric fundus, the “relaxation of muscle strips” value is “induce concentration-dependent relaxations”. Further, the “effect on NANC relaxations induced by electrical stimulation at intervals” value with pig gastric fundus (circular, but not longitudinal muscle strips) is listed as “increases the duration of the NANC relaxations”.

Consider helospectin, for which the “cAMP and cGMP levels after exposure” value in series [6] is “both cAMP and cGMP levels were increased”.

For “pituitary adenylate cyclase activating peptide [PACAP]”, in series [6], the “relaxation of circular smooth muscle (LOS)” value (shortened to “relaxation … (LOS)”) is “induced concentration-dependent relaxations”; the “cAMP and cGMP levels after exposure” value was “both cAMP and cGMP levels were increased”. Also, in series [7], the “relaxation … (LOS)” value is on record as “induced concentration-dependent relaxations”.

Turning to “vasoactive intestinal peptide (HSDAVFTDNYTRLRKQMAVKKYLNSILN; ends and bridges not checked; UniProt P01282 125-152, looked up) [VIP]”, the “relaxation … (LOS)” value in series [6] and in series [7] was “induced concentration-dependent relaxations” throughout. For the same compound, the “cAMP and cGMP levels after exposure” value in series [6] is given as “increase in cAMP levels only”.
